According to US11242351B2, “Tricyclic inhibitors of the BCL6 BTB domain protein-protein interaction and uses thereof” (priority 2017, dated 2022):
Read-outs that look alike come from different tables or passages of the source.

Key:
[1] = molecular target: BCL6 BTB domain (biotin-thrombin-BCL6 amino acids 1-129) (Homo sapiens (Human), UniProt P41182); assay: Surface Plasmon Resonance (SPR) assay; format: binding; details: Biacore T200, single cycle kinetic analysis
Experimental: Surface Plasmon Resonance (SPR) Assay
SPR studies were performed using a Biacore™ T200 instrument (GE Health Sciences Inc.). […] The Biacore flow rate was set at 100 μl/min. […] Curve fitting and KD calculations were performed with the Biacore T200 Evaluation software (GE Health Sciences Inc).

Karpas422 cells = assay: Tumor cell growth inhibition assay; format: cell-based; details: Homo sapiens, KARPAS-422, 144 h, read-out: GI Karpas EC50
Experimental: Tumor Cell Growth Inhibition Assay:
Karpas422 cells were seeded into a 96-well plate at 2,000 cells/well in 150 μl medium (Alpha-MEM containing 10% FBS, […] Normocin, and […] Gentamycin, Invitrogen). A HP D300 digital dispenser was used to dose cells with DMSO or test compounds across a 10-point range of concentrations (high dose of 5 μM), and cultures were grown in a humidified 5% CO2 incubator at 37° C. After six days, plates were removed from incubator and equilibrated to room temperature. An equal volume of ATPlite assay reagent was added to each well, and samples were processed according to the manufacturer's instructions (Perkin Elmer). The luminescent signal was measured using an Envision plate reader equipped with a US-Luminescence detector.

[2] = system: BCL6 reporter construct in SuDHL4-3×BCL6-TK-Luc cells; assay: Cell-based luciferase assay (BCL6 reporter); details: 48 h, read-out: Luc IC50
Experimental: Cell-Based Luciferase Assay:
A BCL6 reporter construct containing three copies of the consensus BCL6 binding site, the TK promoter, and the firefly luciferase gene was stably expressed in SuDHL4 cells after lentivirus infection and selection with Blasticidin. SuDHL4-3×BCL6-TK-Luc cells were seeded into a Viewplate 384-well assay dish at 15,000 cells/well in […] (Alpha-MEM high glucose containing 10% FBS, 25 mM HEPES, […] GlutaMAX, 100 µg/mL Normocin, and […] Gentamycin, Invitrogen). A HP D300 digital dispenser was used to dose cells with DMSO or test compounds across a 10-point range of concentrations (high dose of 10 μM), and cultures were grown in a humidified 5% CO2 incubator at 37° C. After two days, plates were removed from the incubator and equilibrated to room temperature. An equal volume of neolite reporter gene assay reagent was added to each well, and samples were processed according to the manufacturer's instructions (Perkin Elmer). The luminescent signal was measured using an Envision plate reader equipped with a US-Luminescence detector.

[3] = Karpas422 cells, six days, ATPlite
[4] = SuDHL4-3×BCL6-TK-Luc cells, two days

| SMILES | Kd [1] [nM] | EC50 (Karpas422 cells; [3]) [nM] | IC50 [2, 4] [nM] | EC50 (Karpas422 cells) [nM] | IC50 [2] [nM] |
| --- | --- | --- | --- | --- | --- |
| CC1Cc2nc3c(c(-c4cc(Cl)c(O)c(C(N)=O)c4)cn3CC(=O)Nc3cc(N4CCOC[C@@H]4C)nc(F)c3Cl)c(=O)n2C1 (stereo partly drawn) [I-66, 3-chloro-5-(1-(2-((3-chloro-2-fluoro-6-((S)-3-methylmor-pholino)pyridin-4-yl)amino)-2-oxo-ethyl)-7-methyl-4-oxo-4,6,7,8-tetra-hydro-1H-dipyrrolo [1,2-a:2′,3′-d]pyrimi-din-3-yl)-2-hydroxy-benzamide] | 15.9 | 74.2 | 186 | – | – |
| CCN1CCN(c2cc(NC(=O)Cn3cc(-c4cc(C(N)=O)c(O)c5c4OCO5)c4c(=O)n5c(nc43)CC(C)C5)c(Cl)c(F)n2)[C@@H](C)C1 (stereo partly drawn) [I-89, 7-(1-(2-((3-chloro-6-((S)-4-ethyl-2-methyl-piperazin-1-yl)-2-fluoropyridin-4-yl)amino)-2-oxoethyl)-7-methyl-4-oxo-4,6,7,8-tetrahydro-1H-dipyrrolo[1,2-a:2′,3′-d]pyrimidin-3-yl)-4-hydroxybenzo[d][1,3] dioxole-5-carboxamide] | 1.36 | 11.1 | 12.9 | – | – |
| C[C@H]1CN(C)CCN1c1cc(NC(=O)Cn2cc(-c3cc(C(N)=O)c(O)c(F)c3F)c3c(=O)n4c(nc32)CCC4)c(Cl)cn1 [I-4, (S)-5-(1-(2-((5-chloro-2-(2,4-dimethylpiperazin-1-yl)pyridin-4-yl)amino)-2-oxoethyl)-4-oxo-4,6,7,8-tetrahydro-1H-dipyrrolo [1,2-a:2′,3′-d]pyrimidin-3-yl)-3,4-difluoro-2-hydroxybenzamide] | 23.2 | 312 | 318 | – | – |
| C[C@H]1CN(CCC(F)(F)F)CCN1c1cc(NC(=O)Cn2cc(-c3cc(C(N)=O)c(O)c(F)c3F)c3c(=O)n4c(nc32)CCC4)c(Cl)cn1 [I-35, (S)-5-(1-(2-((5-chloro-2-(2-methyl-4-(3,3,3-trifluoropropyl)piperazin-1-yl)pyridin-4-yl)amino)-2-oxoethyl)-4-oxo-4,6,7,8-tetrahydro-1H-dipyrrolo[1,2-a:2′,3′-d]pyrimidin-3-yl)-3,4-difluoro-2-hydroxy-benzamide] | 24.3 | 194 | 237 | – | – |
| C[C@H]1CN(C)CCN1c1cc(NC(=O)Cn2cc(-c3cc(C(N)=O)c(O)c(F)c3F)c3c(=O)n4c(nc32)COCC4)c(Cl)c(F)n1 [I-33, (S)-5-(1-(2-((3-chloro-6-(2,4-dimethylpiperazin-1-yl)-2-fluoropyridin-4-yl)amino)-2-oxoethyl)-4-oxo-4,6,7,9-tetrahydro-1H-pyrrolo[2′,3′:4,5]pyrimido[2,1-c][1,4]oxazin-3-yl)-3,4-difluoro-2-hydroxybenzamide] | 11 | – | – | 214 | 149 |
| C[C@H]1CN(C2COC2)CCN1c1cc(NC(=O)Cn2cc(-c3cc(C(N)=O)c(O)c(F)c3F)c3c(=O)n4c(nc32)CCC4)c(Cl)cn1 [I-7, (S)-5-(1-(2-((5-chloro-2-(2-methyl-4-(oxetan-3-yl)piperazin-1-yl)pyridin-4-yl)amino)-2-oxoethyl)-4-oxo-4,6,7,8-tetrahydro-1H-dipyrrolo[1,2-a:2′,3′-d]pyrimidin-3-yl)-3,4-difluoro-2-hydroxy-benzamide] | 17.6 | 299 | 213 | – | – |
| C[C@H]1CN(C)C[C@H](C)N1c1cc(NC(=O)Cn2cc(-c3cc(C(N)=O)c(O)c(F)c3F)c3c(=O)n4c(nc32)CCC4)c(Cl)c(F)n1 [I-73, 5-(1-(2-((3-chloro-2-fluoro-6-((2S,6S)-2,4,6-trimethyl-piperazin-1-yl)pyridin-4-yl)amino)-2-oxo-ethyl)-4-oxo-4,6,7,8-tetrahydro-1H-dipyrrolo [1,2-a:2′,3′-d]pyrimidin-3-yl)-3,4-difluoro-2-hydroxybenzamide] | 58.6 | – | – | 648 | 1050 |
| C[C@H]1CN(C)CCN1c1cc(NC(=O)Cn2cc(-c3cc(F)c(O)c(C(N)=O)c3)c3c(=O)n4c(nc32)CC(C)(C)C4)c(Cl)c(F)n1 [I-79, (S)-5-(1-(2-((3-chloro-6-(2,4-dimethyl-piperazin-1-yl)-2-fluoropyridin-4-yl)amino)-2-oxoethyl)-7,7-dimethyl-4-oxo-4,6,7,8-tetrahydro-1H-dipyrrolo[1,2-a:2′,3′-d]pyrimidin-3-yl)-3-fluoro-2-hydroxy-benzamide] | 2.79 | 39.8 | 35.2 | – | – |
| C[C@H]1CN(C)C[C@H](C)N1c1cc(NC(=O)Cn2cc(-c3cc(C(N)=O)c(O)c(F)c3F)c3c(=O)n4c(nc32)CCC4)c(Cl)cn1 [I-54, 5-(1-(2-((5-chloro-2-((2S,6S)-2,4,6-trimethylpiperazin-1-yl)pyridin-4-yl)amino)-2-oxoethyl)-4-oxo-4,6,7,8-tetrahydro-1H-dipyrrolo[1,2-a:2′,3′-d]pyrimidin-3-yl)-3,4-difluoro-2-hydroxy-benzamide] | 97.6 | – | – | 2000 | 5980 |
| NC(=O)c1cc(-c2cn(CC(=O)Nc3cc(N4CCCC4)nc(F)c3Cl)c3nc4n(c(=O)c23)CCC4)cc(Cl)c1O [I-74, 3-chloro-5-(1-(2-((3-chloro-2-fluoro-6-(pyrrolidin-1-yl)pyridin-4-yl)amino)-2-oxo-ethyl)-4-oxo-4,6,7,8-tetrahydro-1H-dipyrrolo [1,2-a:2′,3′-d]pyrimidin-3-yl)-2-hydroxy-benzamide] | 14.8 | 210 | 148 | – | – |
| COc1c(-c2cn(CC(=O)Nc3cc(N4CCN(C)C[C@@H]4C)nc(F)c3Cl)c3nc4n(c(=O)c23)CCC4)cc(C(N)=O)c(O)c1Cl [I-95, (S)-3-chloro-5-(1-(2-((3-chloro-6-(2,4-dimethylpiperazin-1-yl)-2-fluoropyridin-4-yl)amino)-2-oxo-ethyl)-4-oxo-4,6,7,8-tetrahydro-1H-dipyrrolo[1,2-a:2′,3′-d]pyrimidin-3-yl)-2-hydroxy-4-methoxy-benzamide] | 450 | – | – | 879 | 993 |
| C[C@H]1CN(C)CCN1c1cc(NC(=O)Cn2cc(-c3cc(C(N)=O)c(O)c(Cl)c3F)c3c(=O)n4c(nc32)CCC4)c(Cl)c(F)n1 [I-10, (S)-3-chloro-5-(1-(2-((3-chloro-6-(2,4-dimethylpiperazin-1-yl)-2-fluoropyridin-4-yl)amino)-2-oxoethyl)-4-oxo-4,6,7,8-tetrahydro-1H-dipyrrolo[1,2-a:2′,3′-d]pyrimidin-3-yl)-4-fluoro-2-hydroxy-benzamide] | 49.7 | – | – | 416 | 448 |
| NC(=O)c1cc(-c2cn(CC(=O)Nc3cc(N4CCOCC4)c(F)cc3Cl)c3nc4n(c(=O)c23)CCC4)c(F)c(F)c1O [I-30, 5-(1-(2-((2-chloro-4-fluoro-5-morpholino-phenyl)amino)-2-oxo-ethyl)-4-oxo-4,6,7,8-tetrahydro-1H-dipyrrolo [1,2-a:2′,3′-d]pyrimidin-3-yl)-3,4-difluoro-2-hydroxybenzamide] | 106 | – | – | 980 | 1110 |
| CN1CCN(c2ccc(Cl)c(NC(=O)Cn3cc(-c4cc(C(N)=O)c(O)c(F)c4F)c4c(=O)n5c(nc43)CCC5)c2)CC1 [I-32, 5-(1-(2-((2-chloro-5-(4-methylpiperazin-1-yl)phenyl)amino)-2-oxo-ethyl)-4-oxo-4,6,7,8-tetrahydro-1H-dipyrrolo [1,2-a:2′,3′-d]pyrimidin-3-yl)-3,4-difluoro-2-hydroxybenzamide] | 261 | 1340 | 3580 | – | – |
| CN1C[C@H]2CC[C@@H](C1)N2c1cc(NC(=O)Cn2cc(-c3cc(C(N)=O)c(O)c(F)c3F)c3c(=O)n4c(nc32)CCC4)c(Cl)cn1 [I-56, 5-(1-(2-((5-chloro-2-((1R,5S)-3-methyl-3,8-diazabicyclo[3.2.1]octan-8-yl)pyridin-4-yl)amino)-2-oxoethyl)-4-oxo-4,6,7,8-tetrahydro-1H-dipyrrolo[1,2-a:2′,3′-d]pyrimidin-3-yl)-3,4-difluoro-2-hydroxy-benzamide] | 38.7 | 586 | 684 | – | – |
| CN(C)c1cc(NC(=O)Cn2cc(-c3cc(C(N)=O)c(O)c(Cl)c3F)c3c(=O)n4c(nc32)CCC4)c(Cl)c(F)n1 [I-27, 3-chloro-5-(1-(2-((3-chloro-6-(dimethyl-amino)-2-fluoro-pyridin-4-yl)amino)-2-oxoethyl)-4-oxo-4,6,7,8-tetrahydro-1H-dipyrrolo[1,2-a:2′,3′-d]pyrimidin-3-yl)-4-fluoro-2-hydroxy-benzamide] | 190 | – | – | 1630 | 1140 |
